How the values were obtained:
J774 [1] = assay: Cytotoxicity against mouse J774 cells at 25 uM incubated for 72 hrs by MTT assay relative to control; format: toxicity, cell-based; conditions: j774, 72 h
Leishmania donovani [2] = assay: Antileishmanial activity against Leishmania donovani amastigotes infected in J774 macrophage assessed as inhibition of parasite growth incubated for 48 hrs by luciferase assay; format: functional, organism-based; conditions: J774, 48 h
J774 [3] = assay: Cytotoxicity against mouse J774 macrophage incubated for 72 hrs by MTT assay; format: functional
J774 [4] = assay: Cytotoxicity against mouse J774 cells at 50 uM incubated for 72 hrs by MTT assay relative to control; format: toxicity, cell-based; conditions: j774, 72 h
Leishmania donovani [5] = assay: Antileishmanial activity against Leishmania donovani promastigotes measured after 48 hrs by MTT assay; format: functional, organism-based
J774 [6] = assay: Cytotoxicity against mouse J774 cells at 12.5 uM incubated for 72 hrs by MTT assay relative to control; format: toxicity, cell-based; conditions: j774, 72 h
[7] = Selectivity index, ratio of CC50 for mouse J774 macrophage to IC50 for Leishmania donovani amastigotes infected in J774 macrophage; format: toxicity; conditions: J774 macrophages, read-out: Ratio CC50/IC50

SMILES	Activity (J774 [1])	IC50 (Leishmania donovani [2])	CC50 (J774 [3])	Activity (J774 [4])	IC50 (Leishmania donovani [5])	Activity (J774 [6])	selectivity ratio [7]
Cn1c(-c2ccc(OCC(=O)Nc3cccc(C(F)(F)F)c3)cc2)nc2ccccc2c1=O	78.66%	21.9 µM	47.7 µM	48.49%	12.3 µM	86.45%	2.17
Cn1c(-c2ccc(OCC(=O)Nc3ccccn3)cc2)nc2cc(F)ccc2c1=O	58.74%	9.16 µM	35.1 µM	30.36%	6.25 µM	85.3%	3.82
Cn1c(-c2ccc(OCC(=O)Nc3ccc([N+](=O)[O-])cc3)cc2)nc2ccccc2c1=O	80.58%	22.2 µM	54.4 µM	55.85%	18.8 µM	84.05%	2.45
COc1ccc(NC(=O)COc2ccc(-c3nc4ccccc4c(=O)n3C)cc2)cc1OC	67.45%	10.5 µM	37 µM	37.47%	7.86 µM	83.52%	3.53
CCn1c(-c2ccc(OCC(=O)Nc3ccc(C)cc3)cc2)nc2ccccc2c1=O	68.99%	10.1 µM	40.9 µM	37.91%	8.43 µM	85.97%	4.03
COc1ccc(NC(=O)COc2ccc(-c3nc4ccccc4c(=O)n3C)cc2)cc1	78.71%	26.1 µM	39.2 µM	35.93%	14.3 µM	83.71%	1.5
Cn1c(-c2ccc(OCC(=O)Nc3cccc4cccnc34)cc2)nc2ccccc2c1=O	76.21%	18.4 µM	42.7 µM	42.14%	16.1 µM	82.65%	2.32
